Test results published in PubChem BioAssay (NCI).
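All cell lines were grown in 96-well plates and treated with compound for 48 hours. GI50 is the concentration that inhibits growth by half. TGI denotes the concentration required for complete inhibition of growth.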

How the values were obtained:
Assay in all cases: NCI tumour cell line growth inhibition, 48 h
HL-60(TB) leukemia = test system: HL-60(TB) leukemia
HOP-92 NSCLC = test system: HOP-92 NSCLC
M14 melanoma = test system: M14 melanoma
K-562 leukemia = test system: K-562 leukemia
SF-295 CNS = test system: SF-295 CNS
A498 renal = test system: A498 renal
HOP-62 NSCLC = test system: HOP-62 NSCLC
MCF7 breast = test system: MCF7 breast
U251 CNS = test system: U251 CNS
SK-MEL-2 melanoma = test system: SK-MEL-2 melanoma
COLO 205 colon = test system: COLO 205 colon
SNB-19 CNS = test system: SNB-19 CNS
DU-145 prostate = test system: DU-145 prostate
NCI-H460 lung = test system: NCI-H460 lung
OVCAR-3 ovarian = test system: OVCAR-3 ovarian
MDA-MB-435 = test system: MDA-MB-435
OVCAR-4 ovarian = test system: OVCAR-4 ovarian
786-0 renal = test system: 786-0 renal
SNB-75 CNS = test system: SNB-75 CNS
NCI-H522 lung = test system: NCI-H522 lung
MDA-MB-231 breast = test system: MDA-MB-231 breast
IGROV1 ovarian = test system: IGROV1 ovarian
RPMI-8226 leukemia = test system: RPMI-8226 leukemia
RXF 393 renal = test system: RXF 393 renal
NCI-H226 lung = test system: NCI-H226 lung
OVCAR-8 ovarian = test system: OVCAR-8 ovarian
HCT-15 colon = test system: HCT-15 colon
PC-3 prostate = test system: PC-3 prostate
OVCAR-5 ovarian = test system: OVCAR-5 ovarian
KM12 colon = test system: KM12 colon
SN12C renal = test system: SN12C renal
TK-10 renal = test system: TK-10 renal
SK-OV-3 ovarian = test system: SK-OV-3 ovarian
ACHN renal = test system: ACHN renal
A549 NSCLC = test system: A549 NSCLC
SK-MEL-28 melanoma = test system: SK-MEL-28 melanoma
LOX IMVI melanoma = test system: LOX IMVI melanoma
HT29 colon = test system: HT29 colon
CAKI-1 renal = test system: CAKI-1 renal
UACC-257 melanoma = test system: UACC-257 melanoma
MOLT-4 leukemia = test system: MOLT-4 leukemia
SF-268 CNS = test system: SF-268 CNS
SW-620 colon = test system: SW-620 colon
SR leukemia = test system: SR leukemia
CCRF-CEM leukemia = test system: CCRF-CEM leukemia
HCT-116 colon = test system: HCT-116 colon
SK-MEL-5 melanoma = test system: SK-MEL-5 melanoma
UO-31 renal = test system: UO-31 renal
HS 578T breast = test system: HS 578T breast
NCI/ADR-RES ovarian = test system: NCI/ADR-RES ovarian
NCI-H23 lung = test system: NCI-H23 lung
HCC-2998 colon = test system: HCC-2998 colon
SF-539 CNS = test system: SF-539 CNS
T-47D breast = test system: T-47D breast
UACC-62 melanoma = test system: UACC-62 melanoma

With NC(=O)c1cc(Cl)ccc1NC(=O)COc1ccccc1 as the compound, how does the GI50 (HL-60(TB) leukemia) read?
The GI50 was 3.29 µM.

And the TGI (HL-60(TB) leukemia)?
The TGI was 70.7 µM.

And the GI50 (HOP-92 NSCLC)?
The GI50 was 5.7 µM.

And the TGI (HOP-92 NSCLC)?
The TGI was greater than 100 µM.

And the GI50 (M14 melanoma)?
Its GI50 is 2.21 µM.

And the TGI (M14 melanoma)?
Its TGI is greater than 100 µM.

And the GI50 (K-562 leukemia)?
The GI50 was 0.854 µM.

And the TGI (K-562 leukemia)?
Its TGI is greater than 100 µM.

What about the GI50 (SF-295 CNS) of the same compound?
The GI50 was 1.96 µM.

What about the TGI (SF-295 CNS) of the same compound?
The TGI was 41.6 µM.

What about the GI50 (A498 renal) of the same compound?
The GI50 was 1.41 µM.

What about the TGI (A498 renal) of the same compound?
The TGI was 9.27 µM.

And the GI50 (HOP-62 NSCLC)?
The GI50 was 5.88 µM.

What about the TGI (HOP-62 NSCLC) of the same compound?
Its TGI is greater than 100 µM.

What about the GI50 (MCF7 breast) of the same compound?
The GI50 was 1.81 µM.

And the TGI (MCF7 breast)?
The TGI was greater than 100 µM.

What about the GI50 (U251 CNS) of the same compound?
The GI50 was 2.34 µM.

What about the TGI (U251 CNS) of the same compound?
Its TGI is greater than 100 µM.

And the GI50 (SK-MEL-2 melanoma)?
Its GI50 is 5.08 µM.

And the TGI (SK-MEL-2 melanoma)?
Its TGI is greater than 100 µM.

And the GI50 (COLO 205 colon)?
The GI50 was 2.51 µM.

And the TGI (COLO 205 colon)?
Its TGI is 14.4 µM.

And the GI50 (SNB-19 CNS)?
Its GI50 is 11.7 µM.

What about the TGI (SNB-19 CNS) of the same compound?
Its TGI is greater than 100 µM.

What about the GI50 (DU-145 prostate) of the same compound?
Its GI50 is 6.01 µM.

And the TGI (DU-145 prostate)?
Its TGI is greater than 100 µM.

What about the GI50 (NCI-H460 lung) of the same compound?
Its GI50 is 3 µM.

What about the TGI (NCI-H460 lung) of the same compound?
The TGI was greater than 100 µM.

What about the GI50 (OVCAR-3 ovarian) of the same compound?
The GI50 was 2.3 µM.

And the TGI (OVCAR-3 ovarian)?
The TGI was 10 µM.

And the GI50 (MDA-MB-435)?
The GI50 was 0.356 µM.

And the TGI (MDA-MB-435)?
Its TGI is 2.22 µM.

And the GI50 (OVCAR-4 ovarian)?
Its GI50 is greater than 100 µM.

What about the TGI (OVCAR-4 ovarian) of the same compound?
The TGI was greater than 100 µM.

And the GI50 (786-0 renal)?
The GI50 was 9.54 µM.

And the TGI (786-0 renal)?
Its TGI is greater than 100 µM.

What about the GI50 (SNB-75 CNS) of the same compound?
Its GI50 is 1.81 µM.

And the TGI (SNB-75 CNS)?
Its TGI is 23 µM.

And the GI50 (NCI-H522 lung)?
Its GI50 is 3.78 µM.

And the TGI (NCI-H522 lung)?
The TGI was greater than 100 µM.

And the GI50 (MDA-MB-231 breast)?
Its GI50 is 9.02 µM.

And the TGI (MDA-MB-231 breast)?
Its TGI is greater than 100 µM.

And the GI50 (IGROV1 ovarian)?
Its GI50 is 5.6 µM.

And the TGI (IGROV1 ovarian)?
Its TGI is greater than 100 µM.

What about the GI50 (RPMI-8226 leukemia) of the same compound?
Its GI50 is 4.33 µM.

And the TGI (RPMI-8226 leukemia)?
The TGI was greater than 100 µM.

And the GI50 (RXF 393 renal)?
Its GI50 is 3.93 µM.

What about the TGI (RXF 393 renal) of the same compound?
The TGI was 39.4 µM.

What about the GI50 (NCI-H226 lung) of the same compound?
Its GI50 is greater than 100 µM.

And the TGI (NCI-H226 lung)?
The TGI was greater than 100 µM.

What about the GI50 (OVCAR-8 ovarian) of the same compound?
Its GI50 is 7.06 µM.

What about the TGI (OVCAR-8 ovarian) of the same compound?
The TGI was greater than 100 µM.

What about the GI50 (HCT-15 colon) of the same compound?
The GI50 was 1.57 µM.

What about the TGI (HCT-15 colon) of the same compound?
Its TGI is greater than 100 µM.

What about the GI50 (PC-3 prostate) of the same compound?
The GI50 was 3.22 µM.

And the TGI (PC-3 prostate)?
Its TGI is greater than 100 µM.

And the GI50 (OVCAR-5 ovarian)?
Its GI50 is 3.86 µM.

What about the TGI (OVCAR-5 ovarian) of the same compound?
Its TGI is greater than 100 µM.

What about the GI50 (KM12 colon) of the same compound?
The GI50 was 2.13 µM.

And the TGI (KM12 colon)?
The TGI was greater than 100 µM.

And the GI50 (SN12C renal)?
The GI50 was 17 µM.

What about the TGI (SN12C renal) of the same compound?
The TGI was greater than 100 µM.

What about the GI50 (TK-10 renal) of the same compound?
The GI50 was 63.8 µM.

What about the TGI (TK-10 renal) of the same compound?
Its TGI is greater than 100 µM.

What about the GI50 (SK-OV-3 ovarian) of the same compound?
The GI50 was 8.15 µM.

And the TGI (SK-OV-3 ovarian)?
The TGI was greater than 100 µM.

What about the GI50 (ACHN renal) of the same compound?
The GI50 was 10.7 µM.

And the TGI (ACHN renal)?
The TGI was greater than 100 µM.

And the GI50 (A549 NSCLC)?
Its GI50 is 7.06 µM.

And the TGI (A549 NSCLC)?
Its TGI is greater than 100 µM.

And the GI50 (SK-MEL-28 melanoma)?
The GI50 was 6.25 µM.

What about the TGI (SK-MEL-28 melanoma) of the same compound?
The TGI was greater than 100 µM.

What about the GI50 (LOX IMVI melanoma) of the same compound?
The GI50 was 8.33 µM.

And the TGI (LOX IMVI melanoma)?
The TGI was greater than 100 µM.

What about the GI50 (HT29 colon) of the same compound?
Its GI50 is 1.74 µM.

What about the TGI (HT29 colon) of the same compound?
The TGI was greater than 100 µM.

What about the GI50 (CAKI-1 renal) of the same compound?
Its GI50 is 4.18 µM.

What about the TGI (CAKI-1 renal) of the same compound?
Its TGI is greater than 100 µM.

And the GI50 (UACC-257 melanoma)?
Its GI50 is greater than 100 µM.

What about the TGI (UACC-257 melanoma) of the same compound?
The TGI was greater than 100 µM.

What about the GI50 (MOLT-4 leukemia) of the same compound?
The GI50 was 8.14 µM.

And the TGI (MOLT-4 leukemia)?
The TGI was greater than 100 µM.

What about the GI50 (SF-268 CNS) of the same compound?
Its GI50 is 9.89 µM.

What about the TGI (SF-268 CNS) of the same compound?
Its TGI is greater than 100 µM.

And the GI50 (SW-620 colon)?
Its GI50 is 2.58 µM.

And the TGI (SW-620 colon)?
The TGI was greater than 100 µM.

And the GI50 (SR leukemia)?
The GI50 was 0.777 µM.

What about the TGI (SR leukemia) of the same compound?
The TGI was greater than 100 µM.

What about the GI50 (CCRF-CEM leukemia) of the same compound?
The GI50 was 3.07 µM.

What about the TGI (CCRF-CEM leukemia) of the same compound?
Its TGI is greater than 100 µM.

What about the GI50 (HCT-116 colon) of the same compound?
The GI50 was 2.72 µM.

And the TGI (HCT-116 colon)?
The TGI was greater than 100 µM.

And the GI50 (SK-MEL-5 melanoma)?
Its GI50 is 7.45 µM.

What about the TGI (SK-MEL-5 melanoma) of the same compound?
The TGI was greater than 100 µM.

And the GI50 (UO-31 renal)?
The GI50 was 17.9 µM.

And the TGI (UO-31 renal)?
The TGI was greater than 100 µM.

And the GI50 (HS 578T breast)?
Its GI50 is 4.65 µM.

What about the TGI (HS 578T breast) of the same compound?
Its TGI is greater than 100 µM.

What about the GI50 (NCI/ADR-RES ovarian) of the same compound?
The GI50 was 1.43 µM.

And the TGI (NCI/ADR-RES ovarian)?
The TGI was 20.9 µM.

And the GI50 (NCI-H23 lung)?
Its GI50 is 5.9 µM.

What about the TGI (NCI-H23 lung) of the same compound?
The TGI was greater than 100 µM.

And the GI50 (HCC-2998 colon)?
The GI50 was 12.1 µM.

What about the TGI (HCC-2998 colon) of the same compound?
Its TGI is greater than 100 µM.

What about the GI50 (SF-539 CNS) of the same compound?
The GI50 was 1.8 µM.

And the TGI (SF-539 CNS)?
The TGI was 5.2 µM.

What about the GI50 (T-47D breast) of the same compound?
Its GI50 is 6.88 µM.

What about the TGI (T-47D breast) of the same compound?
The TGI was greater than 100 µM.

What about the GI50 (UACC-62 melanoma) of the same compound?
Its GI50 is 5.42 µM.

And the TGI (UACC-62 melanoma)?
The TGI was greater than 100 µM.
